Laboratory results taken from patent US20200231638A1, “STABILIZED ANTI-MICROBIAL PEPTIDES” (priority 2015, published 2020).
Bridge positions count the residues as written; N and C are the ends. Square brackets hold non-standard residues; d marks the D form. Peptide text beside a SMILES is read from it. S5 = C=CCCC[C@](C)(N)C(=O)O; Nle = CCCC[C@H](N)C(=O)O

Tests used:
E. coli = format: cell-based, Escherichia coli
Summary of the method: (§1)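 MIC read as the minimum peptide concentration showing no visible growth after 20-24 hours at 37° C. Cultures were grown overnight, then regrown several hours before testing. Medium was MHB refined by anion exchange to strip polyanions; final inoculum 5×10^5 CFU/ml.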

B. cereus = format: cell-based, Bacillus cereus
Summary of the method: as §1

S. aureus = format: cell-based, Staphylococcus aureus
Summary of the method: as §1

P. aeruginosa = format: cell-based, Pseudomonas aeruginosa
Summary of the method: as §1

human red blood cells = format: cell-based; details: red cells of human, 1 h, 25
Summary of the method: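 Washed human RBCs as 1% (v/v) suspension in phosphate-buffered saline incubated 1 h at 37° C with serially diluted peptides. Hemoglobin release in supernatant measured spectrophotometrically (570 nm), % hemolysis relative to untreated and 1% Triton-X100 controls; MHC defined as concentration giving less than 1% release.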

| MIC E. coli (E. coli) [µg/mL] | MIC B. cereus (B. cereus) [µg/mL] | MIC S. aureus (S. aureus) [µg/mL] | MIC P. aeruginosa (P. aeruginosa) [µg/mL] | Structure (SMILES) | % Hemolysis at 25 μg/ml (human red blood cells) [%] |
| --- | --- | --- | --- | --- | --- |
| 3.1 | 50 | >50 | 25 | CCCC[C@H](NC(=O)[C@]1(C)CCCC=CCCC[C@](C)(NC(=O)[C@H](C)NC(=O)[C@H](CCCCN)NC(=O)[C@@H](CCCCN)NC(=O)[C@H](Cc2ccccc2)NC(=O)[C@H](CCCCN)NC(=O)[C@H](CCCCN)NC(=O)[C@H](C)NC(=O)[C@H](CO)NC(=O)[C@H](Cc2c[nH]cn2)NC(=O)[C@H](CC(C)C)NC(=O)[C@H](Cc2ccccc2)NC(=O)[C@H](CCCCN)NC(=O)CNC(=O)[C@@H](NC(=O)CN)[C@@H](C)CC)C(=O)N[C@@H](C(C)C)C(=O)NCC(=O)N[C@@H](CCC(=O)O)C(=O)N1)C(=O)N[C@@H](CC(N)=O)C(=O)N[C@@H](CO)C(N)=O [Mag(i + 4)15(G13k)] (H-GIGKFLHSAKKF[dK]KA[S5]VGE[S5][Nle]NS-NH2; staple 16-20) | 2.1 |
| 3.1 | 6.2 | 12.5 | 12.5 | CCCC[C@H](NC(=O)[C@]1(C)CCCC=CCCC[C@](C)(NC(=O)[C@H](C)NC(=O)[C@H](CCCCN)NC(=O)CNC(=O)[C@H](Cc2ccccc2)NC(=O)[C@H](CCCCN)NC(=O)[C@H](CCCCN)NC(=O)[C@H](C)NC(=O)[C@H](CO)NC(=O)[C@H](Cc2c[nH]cn2)NC(=O)[C@H](CC(C)C)NC(=O)[C@H](Cc2ccccc2)NC(=O)[C@H](CCCCN)NC(=O)CNC(=O)[C@@H](NC(=O)CN)[C@@H](C)CC)C(=O)N[C@@H](C(C)C)C(=O)N[C@@H](CCC(=O)O)C(=O)N[C@@H](CCC(=O)O)C(=O)N1)C(=O)N[C@@H](CC(N)=O)C(=O)N[C@@H](CO)C(N)=O [Mag(i + 4)15(G18E), GIGKFLHSAKKFGKAXVEEXBNS] (H-GIGKFLHSAKKFGKA[S5]VEE[S5][Nle]NS-NH2; staple 16-20) | 4.8 |
| 1.6 | 3.1 | 6.2 | 6.2 | CCCC[C@H](NC(=O)[C@]1(C)CCCC=CCCC[C@](C)(NC(=O)[C@H](C)NC(=O)[C@H](CCCCN)NC(=O)CNC(=O)[C@H](Cc2ccccc2)NC(=O)[C@H](CCCCN)NC(=O)[C@H](CCCCN)NC(=O)[C@H](C)NC(=O)[C@H](CO)NC(=O)[C@H](Cc2c[nH]cn2)NC(=O)[C@H](CC(C)C)NC(=O)[C@H](Cc2ccccc2)NC(=O)[C@H](CCCCN)NC(=O)CNC(=O)[C@@H](NC(=O)CN)[C@@H](C)CC)C(=O)N[C@@H](C(C)C)C(=O)N[C@@H](Cc2c[nH]cn2)C(=O)N[C@@H](CCC(=O)O)C(=O)N1)C(=O)N[C@@H](CC(N)=O)C(=O)N[C@@H](CO)C(N)=O [Mag(i + 4)15(G18H), GIGKFLHSAKKFGKAXVHEXBNS] (H-GIGKFLHSAKKFGKA[S5]VHE[S5][Nle]NS-NH2; staple 16-20) | 6.8 |
| 1.6 | 3.1 | 12.5 | 3.1 | CCCC[C@H](NC(=O)[C@]1(C)CCCC=CCCC[C@](C)(NC(=O)[C@H](C)NC(=O)[C@H](CCCCN)NC(=O)CNC(=O)[C@H](Cc2ccccc2)NC(=O)[C@H](CCCCN)NC(=O)[C@H](CCCCN)NC(=O)[C@H](C)NC(=O)[C@H](CO)NC(=O)[C@H](Cc2c[nH]cn2)NC(=O)[C@H](CC(C)C)NC(=O)[C@H](Cc2ccccc2)NC(=O)[C@H](CCCCN)NC(=O)CNC(=O)[C@@H](NC(=O)CN)[C@@H](C)CC)C(=O)N[C@@H](C(C)C)C(=O)N[C@@H](CCCCN)C(=O)N[C@@H](CCC(=O)O)C(=O)N1)C(=O)N[C@@H](CC(N)=O)C(=O)N[C@@H](CO)C(N)=O [Mag(i + 4)15(G18K), GIGKFLHSAKKFGKAXVKEXBNS] (H-GIGKFLHSAKKFGKA[S5]VKE[S5][Nle]NS-NH2; staple 16-20) | 10.1 |
